What was measured:
Test in all cases: relative viability (nuclei count vs DMSO), 5 days (fraction); higher = more cells survive
[1] = compound: O=C(NC1CCNCC1)c1n[nH]cc1NC(=O)c1c(Cl)cccc1Cl [AT-7519] + CS(=O)(=O)CCNCc1ccc(-c2ccc3ncnc(Nc4ccc(OCc5cccc(F)c5)c(Cl)c4)c3c2)o1 [Lapatinib] (partner 2 µM)
In short: (§1)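 Cells from lung cancer lines were seeded into 1536-well plates and, one day later, dosed by pin tool. Treatments were either a single drug or a fixed dose of an anchor drug with five library-drug doses (not always all listed) in √10 steps. After 5 days, nuclei were stained in a one-step fixation (final 0.05% Triton X-100, 1% formaldehyde, 1 ug/ml Hoechst) and counted on 4× images, and relative viability is the treated-to-vehicle nuclei ratio, as the median of duplicate plates.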

[2] = compound: C1=CC2=C(C=C(C(=C2N=C1)O)N=NC3=CC4=C(C=C3)C=C(C=C4)S(=O)(=O)O)S(=O)(=O)O + N=C(N)NC(=N)NCCc1ccccc1 [Phenformin] (partner 250 µM)
In short: as §1

[3] = compound: C1=CC2=C(C=C(C(=C2N=C1)O)N=NC3=CC4=C(C=C3)C=C(C=C4)S(=O)(=O)O)S(=O)(=O)O + O=C(CCCCCCC(=O)Nc1ccccc1)NO [Vorinostat] (partner 1 µM)
In short: as §1

[4] = compound: O=C(NC1CCNCC1)c1n[nH]cc1NC(=O)c1c(Cl)cccc1Cl [AT-7519] + O=C(CCCCCCC(=O)Nc1ccccc1)NO [Vorinostat] (partner 1 µM)
In short: as §1

Cell Line	relative viability ([1]; first compound 0.01 µM)	relative viability ([1]; first compound 0.03162 µM)	relative viability ([1]; first compound 0.3162 µM)	relative viability ([1]; first compound 1 µM)	relative viability ([2]; first compound 0.08 µM)	relative viability ([2]; first compound 0.253 µM)	relative viability ([2]; first compound 0.8 µM)	relative viability ([2]; first compound 2.53 µM)	relative viability ([2]; first compound 8 µM)	relative viability ([3]; first compound 0.08 µM)	relative viability ([3]; first compound 0.253 µM)	relative viability ([3]; first compound 0.8 µM)	relative viability ([3]; first compound 2.53 µM)	relative viability ([3]; first compound 8 µM)	relative viability ([4]; first compound 0.01 µM)	relative viability ([4]; first compound 0.03162 µM)	relative viability ([4]; first compound 0.3162 µM)	relative viability ([4]; first compound 1 µM)
NCI-H1975	0.861	0.817	0.447	0.158	0.424	0.434	0.413	0.386	0.39	0.707	0.693	0.63	0.753	0.732	0.805	0.679	0.624	0.27
CAL-12T		0.538	0.386	0.186	0.536	0.522	0.502	0.693	0.358	0.916	0.571	0.668	0.752	0.725	0.777	0.653	0.543	0.108
NCI-H1623					0.565	0.541	0.609	0.589	0.278									
HCC-44	0.984	1.05	1.1	0.979	0.126	0.218	0.249	0.17	0.184	1.22	1.08	1.08	1.11	0.995	1.16	1.08	1.11	1.08
EKVX	0.203	0.198	0.186	0.172	0.237	0.225	0.235	0.232	0.139	0.757	0.694	0.643	0.76	0.656	0.671	0.636	0.535	0.786
NCI-H1651	0.862	0.784	0.607	0.534	0.386	0.331	0.385	0.329	0.337	0.66	0.561	0.566	0.535	0.546	0.606	0.505	0.56	0.643
NCI-H1944	0.807	0.775	0.84	0.864	0.237	0.199	0.19	0.199	0.193	0.52	0.538	0.525	0.583	0.477	0.547	0.528	0.534	0.436
NCI-H1703	1.03	0.955	0.821	0.206														
Calu-6	1.12	1.07	0.988	0.18														
EBC-1	0.234	0.2	0.213	0.178														
SW 1573	1.08	1.18	1.07	0.569	0.406	0.478	0.418	0.3	0.296	0.92	0.915	0.531	0.828	0.519	0.812	0.696	0.615	0.231
A-427	1.1	0.989	1.03	0.929	0.324	0.293	0.283	0.288	0.313	0.894	0.821	0.796	0.861	0.924	0.894	0.863	0.927	0.768
NCI-H2347	1.04	1.06	0.989	0.935	0.356	0.318	0.438	0.558	0.303	0.691	0.621	0.59	0.408	0.729	0.463	0.527	0.637	0.379
NCI-H1355	0.959	0.911	1.12	0.989	0.484	0.432	0.44	0.481	0.434	0.646	0.619	0.615	0.605	0.481	0.65	0.624	0.661	0.598
NCI-H358	0.406	0.447	0.335	0.198	0.35	0.35	0.339	0.345	0.327	0.676	0.711	0.628	0.748	0.701	0.646	0.604	0.5	0.108
PC-3 [JPC-3]	0.529	0.441	0.416	0.52	0.474	0.473	0.477	0.478	0.494	0.648	0.819	0.751	0.843	0.709	0.667	0.773	0.884	1.17
NCI-H2228	1.02	1.11	0.669	0.481	0.441	0.341	0.296	0.303	0.423	0.966	0.518	0.468	0.652	0.589	0.406	0.671	0.572	0.517
HOP-62	1.03	0.963	1.06	1.05	0.836	0.584	0.618	0.645	0.53	0.438	0.693	0.602	0.619	0.6	0.555	0.608	0.682	0.565
HARA	0.804	0.622	0.604	0.681	0.467	0.459	0.464	0.544	0.479	0.631	0.383	0.565	0.493	0.551	0.479	0.527	0.588	0.223
NCI-H838	1.05	0.815	0.124	0.0875	0.497	0.558	0.557	0.483	0.551	0.755	0.681	0.712	0.688	0.71	0.758	0.653	0.62	0.153
NCI-H1755	1.02	1.03	0.948	1.11	0.597	0.59	0.605	0.63	0.651	0.81	0.773	0.709	0.824	0.728	0.769	0.693	0.839	0.814

— the supplement of paper PMC10307832
